Measurements as given in ChEMBL document CHEMBL1134140, “Design, synthesis, and biological evaluation of a series of simple and novel potential antimalarial compounds” (Bioorg Med Chem Lett, 2001).

Assays:
[1] = test system: Plasmodium falciparum; test: In vitro inhibitory activity against Plasmodium falciparum; format: functional, organism-based
[2] = The toxicity was evaluated against KB cells using podophyllotoxin (ED50 0.2 nM) as a standard; format: functional; conditions: Homo sapiens, read-out: ED50 (the source's name)
[3] = test system: Trypanosoma cruzi; test: (§1) In vitro Trypanosoma cruzi (TC); format: functional; conditions: read-out: ED50 (the source's name)
[4] = test system: Trypanosoma cruzi; test: as §1; format: functional, organism-based
[5] = The toxicity was evaluated against KB cells; format: functional; conditions: Homo sapiens, read-out: ED50 (the source's name)

| Compound | IC50 [1] [µM] | EC50 [2] [µM] | EC50 [3] [µM] | IC50 [4] [µM] | EC50 [5] [µM] |
| --- | --- | --- | --- | --- | --- |
| COc1cc2c(c(OC(=O)c3ccccc3F)c1OC)C(=O)[C@]1(OC)C=C[C@H]2N(c2ccccc2)O1 | 6.3 | 7.7 | > 61 | – | – |
| COc1cc2c(c(OC(=O)c3ccc(F)cc3)c1OC)C(=O)[C@]1(OC)C=C[C@H]2N(c2ccccc2)O1 | 7.5 | 6.5 | 9.2 | – | – |
| COc1cc2c(c(OC)c1OC)C(=O)[C@]1(OC)C=C[C@H]2N(c2ccccc2)O1 | 8.9 | < 0.8 | 65.3 | – | – |
| CCCC(=O)Oc1c(OC)c(OC)cc2c1C(=O)[C@]1(OC)C=C[C@H]2N(c2ccccc2)O1 | 3.9 | 3.2 | > 68.3 | – | – |
| COc1cc2c(c(OC(C)=O)c1OC)C(=O)[C@]1(OC)C=C[C@H]2N(c2ccccc2)O1 | 5.3 | 6.3 | – | 23.8 | – |
| COc1cc2c(c(OC(=O)c3ccccc3)c1OC)C(=O)[C@]1(OC)C=C[C@H]2N(c2ccccc2)O1 | 3.4 | 11.8 | > 63.4 | – | – |
| COc1ccc(C(=O)Oc2c(OC)c(OC)cc3c2C(=O)[C@]2(OC)C=C[C@H]3N(c3ccccc3)O2)cc1 | 6.6 | 13.3 | > 59.6 | – | – |
| COc1cc2c(c(OC(=O)COC(C)=O)c1OC)C(=O)[C@]1(OC)C=C[C@H]2N(c2ccccc2)O1 | 3.2 | 128 | > 63.9 | – | – |
| COc1cc2c(c(O)c1OC)C(=O)[C@]1(OC)C=C[C@H]2N(c2ccccc2)O1 | 5.4 | < 0.8 | 4.3 | – | – |
| COc1cc2c(c(OC(=O)CN3C(=O)c4ccccc4C3=O)c1OC)C(=O)[C@]1(OC)C=C[C@H]2N(c2ccccc2)O1 | 6.1 | 89.8 | 11.9 | – | – |
| O=C(Cn1ccnc1[N+](=O)[O-])NCc1ccccc1 [BENZNIDAZOLE] | – | – | 7.1 | – | – |
| COc1cc2c(c(OC(=O)c3ccc(Cl)cc3)c1OC)C(=O)[C@]1(OC)C=C[C@H]2N(c2ccccc2)O1 | > 59 | 29.1 | > 59 | – | – |
| CCC(=O)Oc1c(OC)c(OC)cc2c1C(=O)[C@]1(OC)C=C[C@H]2N(c2ccccc2)O1 | 6.6 | < 0.7 | – | > 70.5 | – |
| COc1cc([C@@H]2c3cc4c(cc3[C@H](O)[C@H]3COC(=O)[C@H]23)OCO4)cc(OC)c1OC [PODOFILOX] | – | – | – | – | 0.0002 |
